In publication PMC7112222, “Investigation of pyrimidine nucleoside analogues as chemical probes to assess compound effects on the proliferation of Trypanosoma cruzi intracellular parasites” (PLoS Neglected Tropical Diseases, 2020):
Where “and” joins values, the source holds several entries; their conditions need not be identical. Identical values can stand only once. Like-named read-outs stand apart in the source and are kept apart here.

Experiments:
[1] = test system: T. cruzi intracellular amastigotes; assay: Image-based assay of the number of T. cruzi infected cells (intracellular amastigotes in 3T3 host cells); assay type: cell-based, Trypanosoma cruzi; conditions: 2 and 4 hour exposures; 73 μM
HEK293 cells [2] = conditions: read-out: IC50 value, cytotoxicity against HEK293 cells; 72 hours exposure; cited from earlier work
3T3 cells = assay: Image-based assay, effect on 3T3 host cells; assay type: cell-based
Method: Parasites and host cells were maintained as outlined previously. Briefly, host 3T3 fibroblasts (ATCC, CCL-92) were grown in RPMI medium (Thermo Fisher Scientific, USA) with no phenol red, supplemented with 10% FBS (Thermo Fisher Scientific, USA) and incubated at 37°C in 5% CO2. Host cells were harvested at 70% confluency and were split every 2–3 days in 175 cm^2 flasks. 3T3 cells were cultured up to passage 7 as contact inhibition was reduced or lost at higher passages. Prior to infection with T. cruzi trypomastigotes, host cells were seeded at 1.2 x 10^6 cells in 75 cm^2 or 4 x 10^5 cells in 25 cm^2 flasks and grown for 24 hours before parasite addition. Parasites were added at a multiplicity of infection (MOI) of 10:1 and incubated for 24 hours before non-infected trypomastigotes were washed off the host cell bed with PBS supplemented with Ca^2+ and Mg^2+ (Thermo Fisher Scientific, USA). Incubation was continued for a further 3 days, until tissue culture trypomastigotes began to egress from host cells. Egressed parasites were used for assays or to continue the infective life cycle in vitro.
[…] Briefly, 14-point serial dilutions of the compounds in 100% DMSO were prepared and then further diluted in sterile water at a ratio of 1:21 compound: water. Five microliters of the diluted compounds were added to wells of T. cruzi infected host cells, using a MiniTrak compound handling device (Perkin Elmer, USA) with final concentrations in the plate ranging from 183 μM to 4.6 x 10^−4 μM. All experiments were performed with two separate biological replicates.
Image analysis was performed with a script developed in Columbus software (CHEMICAL LABEL INCORPORATION SCRIPT). Control wells were also imaged at an increased, 60x magnification to show the distribution of staining and the structure of the parasites within host cells. Eight background control wells consisted of infected host cells, fixed and exposed to Hoechst and the click chemistry cocktail, without the addition of the chemical probe EdU. […] The percentage activity of compounds against parasite number / infected cells (identified with Hoechst) was calculated against a positive control of 12 μM of NFX for the parasite and 30 μM of PURO the host cells; and a negative control of 0.47% DMSO. All images taken were not modified and were taken on an Opera, confocal image-based reader.

T. cruzi amastigote DNA = assay: Incorporation of pyrimidine nucleoside analogues into T. cruzi amastigote DNA (click chemistry, colocalisation with Hoechst); assay type: cell-based, Trypanosoma cruzi
Method: T. cruzi infected 3T3 fibroblasts were initially exposed to nucleoside analogues for 48 hours at concentrations ranging from 73 μM to 1.8 x10^-4 μM. Host cell, parasite and compound additions were carried out as previously described. Cells were then stained using a click chemistry azide cocktail, followed by Hoechst to identify nuclear material, as previously reported. The freshly prepared azide cocktail consisted of a final concentration of 5 μM of Alexa Fluor 488 azide (Thermo Fisher Scientific, USA), 1 mM copper sulfate (Sigma Aldrich, USA) and 100 mM sodium ascorbate (Sigma Aldrich, USA), in DPBS. Wells were imaged on an Opera image-based reader (Perkin Elmer, USA) at 20x magnification with 405 nm (defined as Hoechst channel) and 488 nm (defined as Alexa 488 channel) lasers using filter sets/bandwidth (emission) of 450/50 nm and 540/75 nm, respectively. To determine nucleoside analogue incorporation into T. cruzi amastigote DNA, a script was developed utilising the Columbus (PerkinElmer, USA) image-based analysis and data handling platform (CHEMICAL LABEL INCORPORATION SCRIPT). Nucleoside analogues were also tested for DNA incorporation following 2, 4 and 24 hours exposure, at the same concentrations. All experiments were performed in duplicate. The colocalisation of nucleoside analogues and Hoechst (replicating parasites) at each time point (48, 4 and 2 hours) was compared using GraphPad Prism 5.
A CHEMICAL LABEL INCORPORATION SCRIPT developed in Columbus firstly identified Hoechst stained parasites within host cells by spot analysis, utilizing the same building block analysis as we had previously developed to determine T. cruzi infected cells. The physical definition of amastigote DNA was identified by Hoechst, with the only modification being that as there was no cytoplasmic marker, thus segmentation borders in the Hoechst channel were applied, which effectively separated host cells (Fig 2). Further building blocks were added to calculate the intensity of Alexa Fluor 488 within the spots identified by Hoechst, in infected cells. This script was first applied to images to determine the mean fluorescence intensity in the Alexa 488 channel of Hoechst identified parasites, without the addition of the chemical label. The mean plus three times the standard deviation of this intensity was used to define values above background, thus the minimum intensity above background required to identify parasite DNA which successfully incorporated the chemical label. An input box was incorporated into the script, in which this minimum intensity above background was entered. Parameters of the developed script, “CHEMICAL LABEL INCORPORATION” are shown in S1 Table.
• Number of T. cruzi amastigote infected cells (≥5 parasites per cell, identified with Hoechst). • Number of Hoechst identified T. cruzi parasites (in infected cells). • Number of parasites incorporating chemical label (T. cruzi parasites with Alexa 488 intensity above background, in infected cells). • % chemical label incorporation. Alexa 488 spots in infected cells (above background) NO / Hoechst spots in infected cells NO *100 = Percentage colocalisation; where NO = number of objects. • Number of host cells.

HEK293 cells [3] = assay: Redox-based assay to assess HEK293 viability; assay type: cell-based, human; conditions: Homo sapiens, HEK293, 48 hours exposure
Method: To determine the effect of the nucleoside analogues against a replicating mammalian cell line, analogues were tested against HEK293 cells, utilising a REDOX-based metabolic assay to assess cell viability as previously described. […] Experiments were performed over two biological replicates.

L. donovani = test system: L. donovani; parameters: method as in PMID 27021313; conditions: 72 hours incubation; cited from earlier work

For `C#Cc1cn([C@H]2C[C@H](O)[C@@H](CO)O2)c(=O)[nH]c1=O` [EdU, 5-ethynyl-2′-deoxy-uridine], the “activity against T. cruzi amastigote growth after short exposure” value [1] is listed as “less than 20%”, the IC50 (HEK293 cells [2]) is listed as 60 ± 43 nM and the “activity against host cells after short exposure” value (3T3 cells; 2 and 4 hour exposures, 73 μM) is listed as “less than 20%”. For the same molecule, the “Host cell 3T3 IC50 value 48 h” value (3T3 cells; 48 h, highest test concentration 183 μM) was “NA (NA = ≤50% activity at the highest concentration tested and an IC50 value could not be determined)”, the “activity against 3T3 cells in the image-based assay” value (3T3 cells; 48 hours) was under 20% and the “% incorporation into T. cruzi DNA” value (T. cruzi amastigote DNA; 2 hours, 1.8 μM) was 75 ± 3.6%. For the same molecule, the “% of Hoechst defined T. cruzi cells with incorporation” value (T. cruzi amastigote DNA; 4 hours, 0.37 μM) was 89 ± 4.8%, the “% of cells with incorporation” value (T. cruzi amastigote DNA; 48 hours exposure, 0.018 μM) was 72 ± 1.09% and the “% of cells containing Alexa Fluor 488 labelled DNA (incorporation)” value (T. cruzi amastigote DNA; 48 hours exposure, 0.037 μM) was 93.1 ± 2.8%. The highest incorporation (T. cruzi amastigote DNA; 48 hours exposure, 0.073 μM) was 94 ± 2.5% and 94%, the “incorporation into T. cruzi DNA following 48 hours incubation (in words)” value (T. cruzi amastigote DNA; 48 hours incubation) was “incorporated” and the IC50 (HEK293 cells [3]; highest test concentration 87 μM, EdU value estimated, relative to Emax plateau of 57%) was 670 ± 260 nM. For the same molecule, the Emax (HEK293 cells [3]; read-out: plateau of activity (Emax) against HEK293 cells) was 57% and the “toxicity toward L. donovani” value (L. donovani) was “lack of toxicity”.
